Laboratory results from paper PMC9736374, “Design, Synthesis and Antimicrobial Properties of New Tetracyclic Quinobenzothiazine Derivatives” (International Journal of Molecular Sciences, 2022).

Tested on: methicillin-resistant S. aureus 63718 (MRSA3)
Experiment: MBC, agar aliquot subculture method
Format: cell-based
Details: Staphylococcus aureus; MRSA3 = 63718

Compound | MBC [µM]
C#CCOc1cccc2c1Nc1c(c[n+](C)c3ccccc13)S2 [Compound 6i, 11-propargyloxy-5-methyl-12H-quino[3,4-b][1,4]benzothiazinium chloride] | 180

Tested on: vancomycin-resistant E. faecalis VRE 725B (VRE3)
Experiment: MIC, microtitration broth method
Format: cell-based, Enterococcus faecalis
Details: VRE3 = VRE 725B; 24 h, 37 °C

MIC [µM] | Compound
180 | C#CCOc1cccc2c1Nc1c(c[n+](C)c3ccccc13)S2 [Compound 6i, 11-propargyloxy-5-methyl-12H-quino[3,4-b][1,4]benzothiazinium chloride]

Tested on: Staphylococcus aureus ATCC 29213
Experiment: MIC, microtitration broth method
Format: cell-based
Details: ATCC29213; SA = Staphylococcus aureus ATCC 29213; 24 h, 37 °C

MIC [µM] | Compound
180 | C#CCOc1cccc2c1Nc1c(c[n+](C)c3ccccc13)S2 [Compound 6i, 11-propargyloxy-5-methyl-12H-quino[3,4-b][1,4]benzothiazinium chloride]

Tested on: normal human dermal fibroblasts (NHDF)
Experiment: In vitro cell viability, WST-1 assay
Format: cell-based
Details: 72 h
Method: Compounds were evaluated for their antiproliferative activity using NHDF (normal human dermal fibroblasts, ATCC, Manassas, VA, USA). The cultured cells were kept at 37 °C and 5% CO2. The cells were seeded (1 × 10^4 cells/well/100 μL DMEM supplemented with 10% FCS and streptomycin/penicillin) into 96-well plates (Corning Inc., Corning, NY, USA). Cells were counted using a hemocytometer (Burker chamber) and phase contrast Olympus IX50 microscope equipped with Sony SSC-DC58 AP camera and Olympus DP10 digital camera. The cell viability of the compounds was determined using the Cell Proliferation Reagent WST-1 assay (Roche Molecular Biochemicals, Mannheim, Germany). The examined cells were exposed to the tested compounds (1 mg/mL DMSO stock) for 72 h at various concentrations (0.1–100 μg/mL). The control was included in order to eliminate the DMSO effect at the concentration used. Cell cultures were incubated with WST-1 (10 μL) for 1 h. The absorbance of the samples was measured against a background control at 450 nm using a microplate reader with a reference wavelength at 600 nm. The obtained results are expressed as means of at least two independent experiments performed in triplicate.

Compound | IC50 [µM]
C#CCOc1cccc2c1Nc1c(c[n+](C)c3ccccc13)S2 [Compound 6i, 11-propargyloxy-5-methyl-12H-quino[3,4-b][1,4]benzothiazinium chloride] | 47.5

Tested on: Mycobacterium marinum CAMP 5644
Experiment: In vitro antimycobacterial MIC, broth dilution micro-method
Format: cell-based
Details: CAMP5644, 504 h; MM = Mycobacterium marinum CAMP 5644; 21 days, 28 °C

MIC [µM] | Compound
45.1 | C#CCOc1cccc2c1Nc1c(c[n+](C)c3ccccc13)S2 [Compound 6i, 11-propargyloxy-5-methyl-12H-quino[3,4-b][1,4]benzothiazinium chloride]

Tested on: methicillin-resistant S. aureus SA 3202 (MRSA1)
Experiment: MIC, microtitration broth method
Format: cell-based
Details: Staphylococcus aureus; MRSA1 = SA 3202; 24 h, 37 °C

MIC [µM] | Compound
180 | C#CCOc1cccc2c1Nc1c(c[n+](C)c3ccccc13)S2 [Compound 6i, 11-propargyloxy-5-methyl-12H-quino[3,4-b][1,4]benzothiazinium chloride]

Tested on: methicillin-resistant S. aureus SA 630 (MRSA2)
Experiment: MBC, agar aliquot subculture method
Format: cell-based
Details: Staphylococcus aureus; MRSA2 = SA 630

Compound | MBC [µM]
C#CCOc1cccc2c1Nc1c(c[n+](C)c3ccccc13)S2 [Compound 6i, 11-propargyloxy-5-methyl-12H-quino[3,4-b][1,4]benzothiazinium chloride] | 361

Tested on: methicillin-resistant S. aureus SA 3202 (MRSA1)
Experiment: MBC, agar aliquot subculture method
Format: cell-based
Details: Staphylococcus aureus; MRSA1 = SA 3202

Compound | MBC [µM]
C#CCOc1cccc2c1Nc1c(c[n+](C)c3ccccc13)S2 [Compound 6i, 11-propargyloxy-5-methyl-12H-quino[3,4-b][1,4]benzothiazinium chloride] | 361

Tested on: vancomycin-resistant E. faecalis VRE 368 (VRE2)
Experiment: MIC, microtitration broth method
Format: cell-based, Enterococcus faecalis
Details: VRE2 = VRE 368; 24 h, 37 °C

MIC [µM] | Compound
180 | C#CCOc1cccc2c1Nc1c(c[n+](C)c3ccccc13)S2 [Compound 6i, 11-propargyloxy-5-methyl-12H-quino[3,4-b][1,4]benzothiazinium chloride]

Tested on: not listed separately
Experiment: Lipophilicity by RP-TLC
Format: physicochemical
Details: Tris buffer pH 7.4/acetone, read-out: logPTLC
Method: The lipophilicity parameters were determined experimentally using reverse phase thin-layer chromatography (RP-TLC). Chromatograms were prepared on RP-18F254s plates (1.05559.0001, Merck, Germany) precoated with nonpolar silicone oil. Plates were developed in glass chromatography chambers previously saturated with vapor of mobile phase. The mobile phase was composed of 0.2M Tris buffer (pH = 7.4) and acetone in different concentrations, i.e., 50%, 60%, 70%, 80 and 90%. The chromatograms were visualised in UV light (λ = 254 nm). Determination of the RF coefficient was carried out twice for all compounds; in all cases, acetone concentrations used. The final value of RF is the mean of the two measurements. The obtained RF coefficient was used to calculate the value of the RM parameter according to the equation: RM = log [(1/RF) − 1]. By extrapolating RM values to zero acetone concentration, a relative RM0 lipophilicity parameter was obtained, according to the equation: RM = RM0 + bC, where b is slope and C is concentration of acetone in mobile phase. Based on RM0 and the calibration curve, the values of logPTLC for compounds 6a–l were determined. The calibration curve was calculated using the relationship between RM0 of the standard molecules (acetanilide, p-kresol, p-bromoacetophenone, benzophenone, anthracene) and the corresponding logP parameters specified by the extraction method, respectively. RM0 parameters of the standard molecules and quinobenzothiazine derivatives 6a–l were determined in the same empirical conditions.

chromatographic logP | Compound
2.2 | C#CCOc1cccc2c1Nc1c(c[n+](C)c3ccccc13)S2 [Compound 6i, 11-propargyloxy-5-methyl-12H-quino[3,4-b][1,4]benzothiazinium chloride]

Tested on: Enterococcus faecalis ATCC 29212
Experiment: MBC, agar aliquot subculture method
Format: cell-based
Details: ATCC29212; EF = Enterococcus faecalis

Compound | MBC [µM]
C#CCOc1cccc2c1Nc1c(c[n+](C)c3ccccc13)S2 [Compound 6i, 11-propargyloxy-5-methyl-12H-quino[3,4-b][1,4]benzothiazinium chloride] | 361

Tested on: Enterococcus faecalis ATCC 29212
Experiment: MIC, microtitration broth method
Format: cell-based
Details: ATCC29212; EF = Enterococcus faecalis; 24 h, 37 °C

MIC [µM] | Compound
361 | C#CCOc1cccc2c1Nc1c(c[n+](C)c3ccccc13)S2 [Compound 6i, 11-propargyloxy-5-methyl-12H-quino[3,4-b][1,4]benzothiazinium chloride]

Tested on: vancomycin-resistant E. faecalis VRE 368 (VRE2)
Experiment: MBC, agar aliquot subculture method
Format: cell-based, Enterococcus faecalis
Details: VRE2 = VRE 368

Compound | MBC [µM]
C#CCOc1cccc2c1Nc1c(c[n+](C)c3ccccc13)S2 [Compound 6i, 11-propargyloxy-5-methyl-12H-quino[3,4-b][1,4]benzothiazinium chloride] | 180

Tested on: methicillin-resistant S. aureus SA 630 (MRSA2)
Experiment: MIC, microtitration broth method
Format: cell-based
Details: Staphylococcus aureus; MRSA2 = SA 630; 24 h, 37 °C

MIC [µM] | Compound
361 | C#CCOc1cccc2c1Nc1c(c[n+](C)c3ccccc13)S2 [Compound 6i, 11-propargyloxy-5-methyl-12H-quino[3,4-b][1,4]benzothiazinium chloride]

Tested on: Staphylococcus aureus ATCC 29213
Experiment: MBC, agar aliquot subculture method
Format: cell-based
Details: ATCC29213; SA = Staphylococcus aureus ATCC 29213

Compound | MBC [µM]
C#CCOc1cccc2c1Nc1c(c[n+](C)c3ccccc13)S2 [Compound 6i, 11-propargyloxy-5-methyl-12H-quino[3,4-b][1,4]benzothiazinium chloride] | 180

Tested on: vancomycin-resistant E. faecalis VRE 342B (VRE1)
Experiment: MBC, agar aliquot subculture method
Format: cell-based, Enterococcus faecalis
Details: VRE1 = VRE 342B

Compound | MBC [µM]
C#CCOc1cccc2c1Nc1c(c[n+](C)c3ccccc13)S2 [Compound 6i, 11-propargyloxy-5-methyl-12H-quino[3,4-b][1,4]benzothiazinium chloride] | 180

Tested on: vancomycin-resistant E. faecalis VRE 342B (VRE1)
Experiment: MIC, microtitration broth method
Format: cell-based, Enterococcus faecalis
Details: VRE1 = VRE 342B; 24 h, 37 °C

MIC [µM] | Compound
180 | C#CCOc1cccc2c1Nc1c(c[n+](C)c3ccccc13)S2 [Compound 6i, 11-propargyloxy-5-methyl-12H-quino[3,4-b][1,4]benzothiazinium chloride]

Tested on: M. smegmatis ATCC 700084
Experiment: In vitro antimycobacterial MIC, broth dilution micro-method
Format: cell-based, Mycobacterium smegmatis
Details: Mycolicibacterium smegmatis, ATCC700084, 72 h; MS = M. smegmatis ATCC 700084; 3 days, 37 °C

MIC [µM] | Compound
90.1 | C#CCOc1cccc2c1Nc1c(c[n+](C)c3ccccc13)S2 [Compound 6i, 11-propargyloxy-5-methyl-12H-quino[3,4-b][1,4]benzothiazinium chloride]

Tested on: methicillin-resistant S. aureus 63718 (MRSA3)
Experiment: MIC, microtitration broth method
Format: cell-based
Details: Staphylococcus aureus; MRSA3 = 63718; 24 h, 37 °C

MIC [µM] | Compound
180 | C#CCOc1cccc2c1Nc1c(c[n+](C)c3ccccc13)S2 [Compound 6i, 11-propargyloxy-5-methyl-12H-quino[3,4-b][1,4]benzothiazinium chloride]

Tested on: vancomycin-resistant E. faecalis VRE 725B (VRE3)
Experiment: MBC, agar aliquot subculture method
Format: cell-based, Enterococcus faecalis
Details: VRE3 = VRE 725B

Compound | MBC [µM]
C#CCOc1cccc2c1Nc1c(c[n+](C)c3ccccc13)S2 [Compound 6i, 11-propargyloxy-5-methyl-12H-quino[3,4-b][1,4]benzothiazinium chloride] | 180
